Source: patent US20230003721A1, “MITOTHERAPEUTICS FOR THE TREATMENT OF BRAIN DISORDERS” (The University of Florida Research Foundation, Inc., priority 2019, published 2023)
Where a name gives a salt, the structure may show the parent alone.

Tests used:
primary neurons [1] = test: CellTiter-Glo luminescence-based ATP assay; format: cell-based, mouse; settings: for ATP: ATP orthogonal screen, 24 h; for EC50 / Emax: Mus musculus, Primary neuron, dose response; for EC50: 15 concentrations from 6 nM to 100 uM; for Emax: maximal percent increase relative to in-plate DMSO controls, read-out: ATP (Effect-size)
Summary of the method: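 Primary neurons treated from DIV13 for 24 h with compound or DMSO. After part of the medium was removed, CellTiter-Glo reagent was added; plates were shaken 10 min at 200 rpm, kept 2 min in the dark at room temperature, and luminescence read as total ATP.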

primary neurons [2] = test: Mitochondrial morphology and neurite area after functional modulators; format: cell-based, mouse; set-up: key to Neurite Area: non-significant (n.s.); settings: for axonal mitochondrial circularity / neuritic area: after 48 h of treatment; for Mitochondrial Morphology / Neurite Area: significant change
Procedure: Mitochondrial morphology and neurite area measurements. Mitochondrial morphology and neurite area were quantified using methods described by Varkuti et al, 2020. Briefly, Cre-dependent mitochondrial targeted GFP2 (mito-GFP) ROSA26 knock-in mice were crossed with Ai14 (007908, The Jackson Laboratory) expressing cytosolic-tdTomato, and the forebrain of P0 pups were isolated and primary neurons were cultured as described above. AAV9 virus containing the iCRE sequence driven by the neuron specific CaMKII promoter was added to the cell culture at plating and 75% of the media replaced 4 h after plating. […] Z-projected images of the green channel were preprocessed (background subtraction: rolling ball, radius=3; median filtering: radius=1) and somatic mitochondria were removed (see details in Varkuti et al, Science Advances 6 (2020) eaaw8702). Red channel images were also preprocessed (tubeness filter, soma removal). Preprocessed images were segmented by GE Developer software (object-based, kernel size: 3). […] The length and circularity measurements for mitochondria were aggregated using the median and the area for neurites using the sum. After removing empty fields and outlier values from the fields, aggregated field values were averaged to well values (4 fields/well, 12 wells/compound). Robust Z-scores were calculated using DMSO-treated wells for each well ((mediancompound−medianDMSO)/median absolute deviationDMSO), well values were averaged for each compound.
A high-content assay was developed in parallel to monitor aspects of mitochondrial dynamics in primary cultured neurons that conditionally express (Cre recombinase dependent) mitochondrial-tagged GFP and cytosolic tdTomato reporters (Varkuti et al., 2020). We monitored two aspects of neuritic mitochondrial dynamics: (1) the health of mitochondria as measured by the average circularity of axonal mitochondria, since defective mitochondria targeted for mitophagy become circular in shape, and (2) the balance between fission/fusion measured by the average length of dendritic mitochondria. […] FIG. 19A illustrates the results of surveying a collection of functional modulators selected from 5 different structural clusters (FIG. 17), quantified as robust z-scores relative to DMSO-treated control neurons.

primary neurons [3] = test: TMRM fluorescence assay of inner mitochondrial membrane potential (ΔΨm); settings: for Emax / EC50: Mus musculus, Primary neuron; for Emax: read-out: TMRM (Effect-size); for EC50: read-out: TMRM-EC50; for TMRM Primary: primary screen, 12.5 μM; for TMRM Primary / TMRM Rescreen: 24 h

SMILES	ATP (primary neurons [1]) [Z-scores]	EC50 (primary neurons [1]) [nM]	Emax (primary neurons [1]) [%]	ATP production in neurons (primary neurons [1]; after 24 hr of treatment)	axonal mitochondrial circularity (primary neurons [2])	neuritic area (primary neurons [2])	Mitochondrial Morphology (primary neurons [2])	Neurite Area (primary neurons [2])	Emax (primary neurons [3]) [%]	EC50 (primary neurons [3]) [nM]	TMRM Primary (primary neurons [3]) [Z-scores]	TMRM Rescreen (primary neurons [3]) [Z-scores]
CCCCOc1ccc(C(=O)CCN2CCCCC2)cc1 [DYCLONINE HYDROCHLORIDE]	7.04	140	20.7	increased	robust effects	increase	elongated	increased	22	750	3.64	6.30
O=c1c(-c2ccc(O)cc2)coc2cc(O)cc(O)c12 [GENISTEIN]	5.96	3000	20.6	–	–	–	elongated	n.s.	19.5	1300	3.38	4.21
COC(=O)[C@@H]1[C@H]2C[C@H]3c4[nH]c5ccccc5c4CCN3C[C@@H]2CC[C@@H]1O [YOHIMBINE HYDROCHLORIDE]	3.11	270	23.6	–	robust effects	increase	elongated	increased	18.6	620	2.70	5.70
